# Measured values reported in BindingDB's records for doi:10.7270/Q23R0R8T (Burnham Center For Chemical Genomics, 2010).
# Target: Nucleotide-binding oligomerization domain-containing protein 2 (Homo sapiens, UniProt Q9HC29)
# Test: NOD2 signaling inhibitors in MDP-stimulated cells, cell-based, uHTS, luminescence (AID 2001)
# Chain of Nucleotide-binding oligomerization domain-containing protein 2 (Q9HC29 whole entry, the tested form may be a part): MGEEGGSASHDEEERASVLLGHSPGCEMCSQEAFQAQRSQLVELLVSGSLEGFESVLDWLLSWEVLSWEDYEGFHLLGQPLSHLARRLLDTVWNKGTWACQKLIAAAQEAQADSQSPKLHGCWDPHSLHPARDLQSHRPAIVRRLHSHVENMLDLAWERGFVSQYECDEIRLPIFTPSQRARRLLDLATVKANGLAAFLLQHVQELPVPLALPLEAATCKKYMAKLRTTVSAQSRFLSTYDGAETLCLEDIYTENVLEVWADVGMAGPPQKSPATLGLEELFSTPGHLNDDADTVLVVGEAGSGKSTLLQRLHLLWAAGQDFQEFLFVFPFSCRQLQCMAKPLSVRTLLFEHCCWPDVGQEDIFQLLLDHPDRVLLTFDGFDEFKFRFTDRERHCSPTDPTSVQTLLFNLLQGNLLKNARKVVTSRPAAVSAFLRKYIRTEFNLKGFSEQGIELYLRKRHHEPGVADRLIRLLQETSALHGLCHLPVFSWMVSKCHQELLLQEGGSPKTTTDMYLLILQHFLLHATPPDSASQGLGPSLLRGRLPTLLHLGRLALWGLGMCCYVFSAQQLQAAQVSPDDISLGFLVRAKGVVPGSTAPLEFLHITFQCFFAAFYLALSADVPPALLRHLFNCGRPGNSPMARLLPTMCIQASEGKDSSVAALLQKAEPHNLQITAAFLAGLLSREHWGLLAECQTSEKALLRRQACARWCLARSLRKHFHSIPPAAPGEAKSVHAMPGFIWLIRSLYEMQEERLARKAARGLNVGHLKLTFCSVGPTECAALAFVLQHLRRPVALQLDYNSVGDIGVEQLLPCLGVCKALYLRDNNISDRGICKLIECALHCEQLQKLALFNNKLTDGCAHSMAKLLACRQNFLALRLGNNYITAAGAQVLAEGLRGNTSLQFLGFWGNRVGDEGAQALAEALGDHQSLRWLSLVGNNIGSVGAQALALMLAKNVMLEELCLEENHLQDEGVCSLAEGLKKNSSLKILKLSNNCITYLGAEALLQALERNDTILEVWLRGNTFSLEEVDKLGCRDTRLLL
row,SMILES,IC50 [µM]
1,Cc1cc(CN=Nc2ncnc(N)c2[N+](=O)[O-])c(C)n1-c1ccccc1,6.1
2,Cc1cc(SCC(=O)OCC(=O)C(C#N)c2nc3ccccc3[nH]2)c(C)cc1Br (stereo unspecified),5.41
3,O=C1C(=O)N(c2nccs2)C(c2ccccc2)C1C(=O)c1ccc2c(c1)OCCO2 (stereo unspecified),18.6
4,"CCCOC1=CC(=O)C(C=NNC(=S)Nc2ccccc2[N+](=O)[O-])C=C1 (stereo unspecified) [1-(2-nitrophenyl)-3-[[(E)-(6-oxo-4-propoxy-1-cyclohexa-2,4-dienylidene)methyl]amino]thiourea]",0.233
5,C=CCN1C(=O)C(=NNC(=S)Nc2cccc(C)c2)c2ccccc21 [1-(3-methylphenyl)-3-[(Z)-(2-oxidanylidene-1-prop-2-enyl-indol-3-ylidene)amino]thiourea],1.18
6,"CCCCCCC1=Cc2c/c(=C3/NN=C(c4ccccc4OC)O3)c(=O)oc2=CC1=O [6-Hexyl-7-hydroxy-3-[5-(2-methoxy-phenyl)-[1,3,4]oxadiazol-2-yl]-chromen-2-one]",8.48
7,"CCCCCCC1=Cc2c/c(=C3/NN/C(=C4/C=CC=CC4=O)O3)c(=O)oc2=CC1=O [(3E)-6-hexyl-3-[(5E)-5-(6-oxocyclohexa-2,4-dien-1-ylidene)-1,3,4-oxadiazolidin-2-ylidene]chromene-2,7-dione]",4.36
8,"Cc1ccc(O)c(/N=C/C2=CC(Cc3ccccc3)C=C([N+](=O)[O-])C2=O)c1 (stereo unspecified) [(6E)-6-[[(5-methyl-2-oxidanyl-phenyl)amino]methylidene]-2-nitro-4-(phenylmethyl)cyclohexa-2,4-dien-1-one]",12.4
9,Cc1ccc(C)c(SCC(=O)OCC(=O)C(C#N)c2nc3ccccc3[nH]2)c1 (stereo unspecified) [MLS000392255],4.92
10,Cc1cc(CN=Nc2nc(N)ncc2[N+](=O)[O-])c(C)n1-c1ccccc1F [MLS000392273],6.02
11,COc1ccc(NS(=O)(=O)c2ccc(N=NC(C)c3ccncc3)c([N+](=O)[O-])c2)cc1 (stereo unspecified) [MLS000393523],2.11
12,C=CCN1C(=O)C(=NNC(=S)Nc2cccc(OC)c2)c2ccccc21 [SMR000132469],1.76
13,CCOc1ccc(-c2csc(/C(C#N)=C/C3C=CC(=O)C([N+](=O)[O-])=C3)n2)cc1 (stereo unspecified) [SMR000237723],2.58
14,CN1C(=O)C(=NNC(=S)Nc2ccccc2F)c2cc(S(=O)(=O)N3CCOCC3)ccc21 [SMR000314843],9.77
15,Cc1cc(N=NCc2ccccc2[N+](=O)[O-])nc(-n2nc(C)cc2C)n1 [SMR000426946],6.55
16,"COc1cc(CN=Nc2nc3c(c(=O)n(C)c(=O)n3C)n2Cc2ccccc2)ccc1OC(=O)c1ccco1 [[4-[[(7-benzyl-1,3-dimethyl-2,6-dioxopurin-8-yl)hydrazinylidene]methyl]-2-methoxyphenyl] furan-2-carboxylate]",5.98
